≈ marks a conversion by molar mass, not a printed value. Read-outs that look alike come from different tables or passages of the source.
Legend:
Proteus vulgaris TB-162 = assay: MIC (minimum inhibitory concentration); format: cell-based; details: tobramycin resistant organism
[1] = test system: Pseudomonas aeruginosa TB-151; assay: MIC (minimum inhibitory concentration); format: cell-based; details: tobramycin resistant organism
[2] = Proteus vulgaris, TB162, Table 3, read-out: MIC
[3] = Pseudomonas aeruginosa, TB151, Table 3, read-out: MIC
[4] = Proteus vulgaris, TB162, Table 2, read-out: MIC
[5] = Pseudomonas aeruginosa, TB151, Table 2, read-out: MIC

| Compound | MIC (Proteus vulgaris TB-162; [2]) | MIC [1, 3] | MIC (Proteus vulgaris TB-162; [4]) | MIC [1, 5] | MIC (Proteus vulgaris TB-162; Table 2) | MIC ([1]; Table 2) |
| --- | --- | --- | --- | --- | --- | --- |
| NC[C@H]1O[C@H](O[C@H]2[C@H](O)[C@@H](O[C@H]3O[C@H](CO)[C@@H](O)[C@H](N)[C@H]3O)[C@H](NC(=O)C3(O)CCNC3)C[C@@H]2N)[C@H](O)[C@@H](O)[C@@H]1O (stereo partly drawn) [KM-A der., 1-N-(3-hydroxypyrrolidine-3-carbonyl)-kanamycin A] | 3.13 µg/mL (≈ 5.24 µM) | 6.25 µg/mL (≈ 10.5 µM) |  |  |  |  |
| NC[C@H]1O[C@H](O[C@H]2[C@H](O)[C@@H](O[C@H]3O[C@H](CO)[C@@H](O)[C@H](N)[C@H]3O)[C@H](N)C[C@@H]2N)[C@H](O)[C@@H](O)[C@@H]1O [KM-A, kanamycin A] | > 100 µg/mL | > 100 µg/mL | > 200 µg/mL | > 200 µg/mL |  |  |
| CN[C@@H]1[C@@H](O)[C@@H](O[C@@H]2[C@@H](O)[C@H](O[C@H]3OC(CN)=CC[C@H]3N)[C@@H](N)C[C@H]2N)OC[C@]1(C)O [SSM, sisomicin] |  |  | 12.5 µg/mL (≈ 27.9 µM) | > 200 µg/mL |  |  |
| NC[C@H]1O[C@H](O[C@H]2[C@H](O)[C@@H](O[C@H]3O[C@H](CO)[C@@H](O)[C@H](N)[C@H]3O)[C@H](NC(=O)C3(O)CCNCC3)C[C@@H]2N)[C@H](N)C[C@@H]1O [TOB der.] | 1.56 µg/mL (≈ 2.62 µM) | 3.13 µg/mL (≈ 5.26 µM) | 6.25 µg/mL (≈ 10.5 µM) | 6.25 µg/mL (≈ 10.5 µM) |  |  |
| NC[C@H]1O[C@H](O[C@H]2[C@H](O)[C@@H](O[C@H]3O[C@H](CO)[C@@H](O)[C@H](N)[C@H]3O)[C@H](N)C[C@@H]2N)[C@H](N)C[C@@H]1O [TOB, tobramycin] | 6.25 µg/mL (≈ 13.4 µM) | 100 µg/mL (≈ 214 µM) | 12.5 µg/mL (≈ 26.7 µM) | 100 µg/mL (≈ 214 µM) |  |  |
| gentamicin [GM] |  |  |  |  | 6.25 µg/mL | 100 µg/mL |

— US4166114A, “Aminoglycoside antibiotic derivatives and method of use” (Shionogi & Co., Ltd., priority 1976, dated 1979)
